Data as given in patent US10392630B2, “Plants having increased tolerance to herbicides” (BASF AGRO B.V., priority 2013, dated 2019).
Numbering of substitutions follows the chain as printed.

Columns and labels:
Assay in all cases: biochemical
[1] = molecular target: T1, Amaranthus mutant PPO (AMARE) (Amaranthus tuberculatus, UniProt Q0NZW9, R128I)
T1 sequence (Q0NZW9 1-534 R128I): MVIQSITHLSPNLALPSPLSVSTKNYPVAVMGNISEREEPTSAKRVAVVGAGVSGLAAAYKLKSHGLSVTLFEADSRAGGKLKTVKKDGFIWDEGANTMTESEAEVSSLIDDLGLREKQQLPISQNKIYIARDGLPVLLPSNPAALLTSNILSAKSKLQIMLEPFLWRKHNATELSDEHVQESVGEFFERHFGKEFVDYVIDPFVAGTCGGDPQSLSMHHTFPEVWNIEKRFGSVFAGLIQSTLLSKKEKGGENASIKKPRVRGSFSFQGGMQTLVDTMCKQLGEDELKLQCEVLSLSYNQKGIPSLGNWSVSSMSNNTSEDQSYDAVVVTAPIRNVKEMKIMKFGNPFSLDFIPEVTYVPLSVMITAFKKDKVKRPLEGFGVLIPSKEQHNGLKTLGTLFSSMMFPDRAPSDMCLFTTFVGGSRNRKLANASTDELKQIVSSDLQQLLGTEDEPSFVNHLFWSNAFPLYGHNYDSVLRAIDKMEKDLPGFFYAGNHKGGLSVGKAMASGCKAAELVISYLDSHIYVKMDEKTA

[2] = molecular target: T2, Amaranthus mutant PPO (AMARE) (Amaranthus tuberculatus, UniProt Q0NZW9, R128A)
T2 sequence (Q0NZW9 1-534 R128A): T1 sequence (Q0NZW9 1-534 R128I) with I128A

[3] = molecular target: T3, Amaranthus mutant PPO (AMARE) (Amaranthus tuberculatus, UniProt Q0NZW9, F420M)
T3 sequence (Q0NZW9 1-534 F420M): T1 sequence (Q0NZW9 1-534 R128I) with I128R, F420M

[4] = molecular target: T4, Amaranthus mutant PPO (AMARE) (Amaranthus tuberculatus, UniProt Q0NZW9, F420I)
T4 sequence (Q0NZW9 1-534 F420I): T1 sequence (Q0NZW9 1-534 R128I) with I128R, F420I

[5] = molecular target: T5, Amaranthus mutant PPO (AMARE) (Amaranthus tuberculatus, UniProt Q0NZW9, F420M/R128A)
T5 sequence (Q0NZW9 1-534 R128A/F420M): T1 sequence (Q0NZW9 1-534 R128I) with I128A, F420M

Q: For `CC(C)N(C)S(=O)(=O)NC(=O)c1cc(-n2c(=O)cc(C(F)(F)F)n(C)c2=O)c(F)cc1Cl` [saflufenacil], which IC50 [1] is on record?
A: Its IC50 is 365 nM.

Q: And the IC50 [2]?
A: The IC50 was 129 nM.

Q: And the IC50 [3]?
A: Its IC50 is 677 nM.

Q: And the IC50 [4]?
A: Its IC50 is 919 nM.

Q: What about the IC50 [5] of the same compound?
A: The IC50 was over 10000 nM.
